# Results: PMC5363373, “Zirconium tetraazamacrocycle complexes display extraordinary stability and provide a new strategy for zirconium-89-based radiopharmaceutical development” (Chemical Science, 2016)
# Key:
# [1] = In vitro EDTA challenge study; format: physicochemical
# Protocol: In vitro EDTA challenge study. In vitro EDTA challenge study was carried out by adding 10 µL of each 89Zr-labeled complex (70 μCi, 2.59 MBq) to 500 µL of EDTA (10 mM, 50 mM and 100 mM: pH 5 and pH 7) with a 1:100, 1:500, and 1:1000 ratio of ligand/EDTA. The solutions (n=4) were incubated at 37 °C for 7 days in a thermomixer. Samples were analyzed at 30 min, 1 h, 3 h, 6 h, 1 d, 3 d, 5 d and 7 d post administration to EDTA by radio-TLC using Varian ITLC-SA strips and 0.1 M EDTA (pH 5) as the mobile phase and gamma counting using an energy window of 500-1500 keV and standard protocols .
# [2] = In vitro metal competition study; format: physicochemical; details: PBS pH 7.4, 37 C
# Protocol: In vitro Metal Competition study. To a solution of metal cations [iron (III) chloride, cobalt (II) chloride, zinc (II) chloride, copper (II) chloride, magnesium (II) chloride, gallium (III) nitrate, gadolinium (III) chloride] (1 mM, 200 µL), was added 89Zr-labeled complex (0.1 mM, 10 µL, 80 μCi, 2.96 MBq) in PBS, pH 7.4. The resulting solutions (n = 3) were incubated at 37 °C for 7 days in a thermomixer. Dissociation of 89Zr from 89Zr-complexes was monitored by radio-TLC at 2 h, 1 d, 4 d and 7 d time point. All studies were performed in triplicate.
# [3] = In vitro serum stability (radio-ITLC); format: in vitro ADME; details: 37 C, after 7 days
# Protocol: In vitro serum stability. In vitro serum stability was carried out by adding 10 µL of each 89Zr-labeled complex (70 μCi, 2.59 MBq) to 500 µL of human serum. The solutions (n=4) were incubated at 37 °C for 7 days and were analyzed daily for 1 week by radio -TLC using Varian ITLC-SA strips and 0.1 M EDTA (pH 5) as the mobile phase and gamma counting using an energy window of 500-1500 keV and standard protocols . Serum samples were also analyzed after 7 days by size exclusion chromatography (SEC) using a Superdex 200 10/300 GLTM column (GE Healthcare Life Sciences, Piscataway, NJ) and phosphate buffered saline (PBS) as eluent with a flow rate of 0.5 mL/min.
# Figure S30. Radio-ITLC of 89Zr-DOTA solution in human serum at 37 °C after 0 h (a) and 7 days (b). […]
# [4] = Biodistribution studies; format: in vivo, female NIH Swiss mice; details: mice, intravenous, 72 h post-injection
# Protocol: Biodistribution Studies. Biodistribution studies were conducted using a modified literature procedure. 7 Briefly, female NIH Swiss mice (6-8 wk old, n=6) were injected with each 89Zr-labeled complex (0.55 MBq (15 μCi)/mouse) via the tail vein, and sacrificed at 2, 4, 24, 48, 72 h post-injection. Organs and tissues of interest were excised, weighted, and counted on a Perkin Elmer 2480 Wizard® gamma counter (Waltham, MA). The percent injected dose per gram (%ID/g) and percent injected dose per organ (%ID/organ) were calculated by comparison to a weighed, counted standard for each group (Tables S9 – S12).
# Statistical Methods. All of the data are presented as mean±SD or mean (95% Confidence Interval). For statistical classification a student’s t test (two-tailed, unpaired) was performed using GraphPad Prism (San Diego, CA). Any p<0.05 was considered significant.
compound,measurement,setting,value
O=P1(O)CN2CCN3CCN4CCN(CC2)CP(=O)(O)[O][89Zr]([O]1)([O]P(=O)(O)C3)[O]P(=O)(O)C4 [89Zr-DOTP],% Intact of 89Zr-complexes,"[1]; EDTA 100-fold, pH 5.0, 37 C, 1 h",98.6 ± 0.3%
same,% Intact of 89Zr-complexes,"[1]; EDTA 100-fold, pH 5.0, 37 C, 1 d",91.8 ± 0.9%
same,% Intact of 89Zr-complexes,"[1]; EDTA 100-fold, pH 5.0, 37 C, 3 d",84.3 ± 0.7%
same,% Intact of 89Zr-complexes,"[1]; EDTA 100-fold, pH 5.0, 37 C, 5 d",78.6 ± 1.0%
same,% Intact of 89Zr-complexes,"[1]; EDTA 100-fold, pH 5.0, 37 C, 7 d",56.5 ± 1.4%
same,% Intact of 89Zr-complexes,"[1]; EDTA 100-fold, pH 7.0, 37 C, 1 h",99.8 ± 0.1%
same,% Intact of 89Zr-complexes,"[1]; EDTA 100-fold, pH 7.0, 37 C, 1 d",98.6 ± 0.1%
same,% Intact of 89Zr-complexes,"[1]; EDTA 100-fold, pH 7.0, 37 C, 3 d",96.8 ± 0.3%
same,% Intact of 89Zr-complexes,"[1]; EDTA 100-fold, pH 7.0, 37 C, 5 d",94.5 ± 0.5%
same,% Intact of 89Zr-complexes,"[1]; EDTA 100-fold, pH 7.0, 37 C, 7 d",92.5 ± 0.4%
same,% Intact of 89Zr-complexes,"[1]; EDTA 500-fold, pH 5.0, 37 C, 1 h",97.4 ± 0.4%
same,% Intact of 89Zr-complexes,"[1]; EDTA 500-fold, pH 5.0, 37 C, 1 d",89.4 ± 0.7%
same,% Intact of 89Zr-complexes,"[1]; EDTA 500-fold, pH 5.0, 37 C, 3 d",72.4 ± 1.4%
same,% Intact of 89Zr-complexes,"[1]; EDTA 500-fold, pH 5.0, 37 C, 5 d",66.7 ± 0.7%
same,% Intact of 89Zr-complexes,"[1]; EDTA 500-fold, pH 5.0, 37 C, 7 d",53.8 ± 0.8%
same,% Intact of 89Zr-complexes,"[1]; EDTA 500-fold, pH 7.0, 37 C, 1 h",99.5 ± 0.3%
same,% Intact of 89Zr-complexes,"[1]; EDTA 500-fold, pH 7.0, 37 C, 1 d",98.2 ± 0.1%
same,% Intact of 89Zr-complexes,"[1]; EDTA 500-fold, pH 7.0, 37 C, 3 d",94.9 ± 1.1%
same,% Intact of 89Zr-complexes,"[1]; EDTA 500-fold, pH 7.0, 37 C, 5 d",91.4 ± 0.3%
same,% Intact of 89Zr-complexes,"[1]; EDTA 500-fold, pH 7.0, 37 C, 7 d",89.3 ± 0.6%
same,% Intact of 89Zr-complexes,"[1]; EDTA 1000-fold, pH 5.0, 37 C, 1 h",96.3 ± 0.5%
same,% Intact of 89Zr-complexes,"[1]; EDTA 1000-fold, pH 5.0, 37 C, 1 d",87.3 ± 1.2%
same,% Intact of 89Zr-complexes,"[1]; EDTA 1000-fold, pH 5.0, 37 C, 3 d",67.5 ± 1.1%
same,% Intact of 89Zr-complexes,"[1]; EDTA 1000-fold, pH 5.0, 37 C, 5 d",58.9 ± 1.4%
same,% Intact of 89Zr-complexes,"[1]; EDTA 1000-fold, pH 5.0, 37 C, 7 d",43.7 ± 1.1%
same,% Intact of 89Zr-complexes,"[1]; EDTA 1000-fold, pH 7.0, 37 C, 1 h",99.2 ± 0.1%
same,% Intact of 89Zr-complexes,"[1]; EDTA 1000-fold, pH 7.0, 37 C, 1 d",97.9 ± 0.1%
same,% Intact of 89Zr-complexes,"[1]; EDTA 1000-fold, pH 7.0, 37 C, 3 d",91.5 ± 0.6%
same,% Intact of 89Zr-complexes,"[1]; EDTA 1000-fold, pH 7.0, 37 C, 5 d",84.9 ± 0.6%
same,% Intact of 89Zr-complexes,"[1]; EDTA 1000-fold, pH 7.0, 37 C, 7 d",79.4 ± 1.2%
same,% Intact of 89Zr-complexes,"[2]; Co2+, 2 h",99.1 ± 0.2%
same,% Intact of 89Zr-complexes,"[2]; Co2+, 1 d",97.2 ± 0.1%
same,% Intact of 89Zr-complexes,"[2]; Co2+, 4 d",95.3 ± 0.5%
same,% Intact of 89Zr-complexes,"[2]; Co2+, 7 d",93.5 ± 1.3%
same,% Intact of 89Zr-complexes,"[2]; Cu2+, 2 h",98.4 ± 0.1%
same,% Intact of 89Zr-complexes,"[2]; Cu2+, 1 d",95.4 ± 0.2%
same,% Intact of 89Zr-complexes,"[2]; Cu2+, 4 d",97.5 ± 0.7%
same,% Intact of 89Zr-complexes,"[2]; Cu2+, 7 d",94.4 ± 1.3%
same,% Intact of 89Zr-complexes,"[2]; Fe3+, 2 h",99.3 ± 0.1%
same,% Intact of 89Zr-complexes,"[2]; Fe3+, 1 d",96.8 ± 1.2%
same,% Intact of 89Zr-complexes,"[2]; Fe3+, 4 d",89.5 ± 0.7%
same,% Intact of 89Zr-complexes,"[2]; Fe3+, 7 d",84.0 ± 0.4%
same,% Intact of 89Zr-complexes,"[2]; Ga3+, 2 h",99.2 ± 0.1%
same,% Intact of 89Zr-complexes,"[2]; Ga3+, 1 d",98.2 ± 0.2%
same,% Intact of 89Zr-complexes,"[2]; Ga3+, 4 d",93.6 ± 0.6%
same,% Intact of 89Zr-complexes,"[2]; Ga3+, 7 d",91.1 ± 1.4%
same,% Intact of 89Zr-complexes,"[2]; Gd3+, 2 h",99.5 ± 0.4%
same,% Intact of 89Zr-complexes,"[2]; Gd3+, 1 d",97.9 ± 0.4%
same,% Intact of 89Zr-complexes,"[2]; Gd3+, 4 d",93.2 ± 1.0%
same,% Intact of 89Zr-complexes,"[2]; Gd3+, 7 d",91.7 ± 2.0%
same,% Intact of 89Zr-complexes,"[2]; Mg2+, 2 h",99.2 ± 0.2%
same,% Intact of 89Zr-complexes,"[2]; Mg2+, 1 d",99.4 ± 0.1%
same,% Intact of 89Zr-complexes,"[2]; Mg2+, 4 d",98.1 ± 0.1%
same,% Intact of 89Zr-complexes,"[2]; Mg2+, 7 d",96.3 ± 0.4%
same,% Intact of 89Zr-complexes,"[2]; Zn2+, 2 h",99.0 ± 0.1%
same,% Intact of 89Zr-complexes,"[2]; Zn2+, 1 d",95.4 ± 0.3%
same,% Intact of 89Zr-complexes,"[2]; Zn2+, 4 d",89.4 ± 1.5%
same,% Intact of 89Zr-complexes,"[2]; Zn2+, 7 d",84.7 ± 2.7%
same,Radio-ITLC peak of complex in human serum,[3],95.2%
same,Radioactivity in blood,[4],0.0005 ± 0.001 % ID per g
same,Radioactivity in bone,[4],2.63 ± 0.12 % ID per g
same,Radioactivity in kidney,[4],0.32 ± 0.045 % ID per g
same,Radioactivity in liver,[4],0.036 ± 0.002 % ID per g
